Test system: 941728-121-R-J1-PDC complex spheroid viability
Test: Anticancer human tumor 941728-121-R-J1-PDC patient-derived lung adenocarcinoma cell line growth inhibition [RAS]
Conditions: for IC50: curve of first compound; for viability, T/C: stronger effect = lower value
Method in brief: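 Tumour cells grown as complex spheroids with HUVEC endothelial cells and mesenchymal stem cells, treated with RAS pathway inhibitor combinations. Each agent spans half-log steps from near clinical Cmax, or 10 microM where Cmax is unknown.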
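Further: spheroids exposed to compounds for 7 days before readout.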
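Wherever viability, T/C is given: 100% = DMSO vehicle control viability.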

Q: Which results are given for `C=CC(=O)N1CCN(c2nc(OCC3CCCN3C)nc3c(F)c(-c4nc(N)cc(C)c4C(F)(F)F)c(Cl)cc23)C(C)C1` (centres undefined) + CCn1c(-c2cccnc2C(C)OC)c2c3cc(ccc31)N1CCOC(CC(NC(=O)C(C(C)C)N(C)C(=O)C3(F)CCN(C(=O)C#CC(C)(C)N(C)C)CC3)C(=O)N3CCCC(N3)C(=O)OCC(C)(C)C2)C1?
A: IC50 (second compound 0.000949 µM): < 3.16 nM; IC50 (second compound 0.003 µM): < 3.16 nM; IC50 (second compound 0.00949 µM): < 3.16 nM; IC50 (second compound 0.03 µM): < 3.16 nM; IC50 (second compound 0.0949 µM): < 3.16 nM; IC50 (second compound 0.3 µM): < 3.16 nM; viability, T/C (second compound 0.000949 µM, first compound 0.00316 µM): 22.3%; viability, T/C (second compound 0.000949 µM, first compound 0.01 µM): 23.4%; viability, T/C (second compound 0.000949 µM, first compound 0.0316 µM): 20.6%; viability, T/C (second compound 0.000949 µM, first compound 0.1 µM): 22.8%; viability, T/C (second compound 0.000949 µM, first compound 0.316 µM): 22.8%; viability, T/C (second compound 0.000949 µM, first compound 1 µM): 19.9%; viability, T/C (second compound 0.003 µM, first compound 0.00316 µM): 26.6%; viability, T/C (second compound 0.003 µM, first compound 0.01 µM): 22.7%; viability, T/C (second compound 0.003 µM, first compound 0.0316 µM): 21.4%; viability, T/C (second compound 0.003 µM, first compound 0.1 µM): 24.5%; viability, T/C (second compound 0.003 µM, first compound 0.316 µM): 23.2%; viability, T/C (second compound 0.003 µM, first compound 1 µM): 19%; viability, T/C (second compound 0.00949 µM, first compound 0.00316 µM): 24.7%; viability, T/C (second compound 0.00949 µM, first compound 0.01 µM): 21.1%; viability, T/C (second compound 0.00949 µM, first compound 0.0316 µM): 22.7%; viability, T/C (second compound 0.00949 µM, first compound 0.1 µM): 23.4%; viability, T/C (second compound 0.00949 µM, first compound 0.316 µM): 20.6%; viability, T/C (second compound 0.00949 µM, first compound 1 µM): 20.5%; viability, T/C (second compound 0.03 µM, first compound 0.00316 µM): 22.4%; viability, T/C (second compound 0.03 µM, first compound 0.01 µM): 22.5%; viability, T/C (second compound 0.03 µM, first compound 0.0316 µM): 25.3%; viability, T/C (second compound 0.03 µM, first compound 0.1 µM): 24.8%; viability, T/C (second compound 0.03 µM, first compound 0.316 µM): 18.7%; viability, T/C (second compound 0.03 µM, first compound 1 µM): 23.6%; viability, T/C (second compound 0.0949 µM, first compound 0.00316 µM): 22.7%; viability, T/C (second compound 0.0949 µM, first compound 0.01 µM): 23.9%; viability, T/C (second compound 0.0949 µM, first compound 0.0316 µM): 23.4%; viability, T/C (second compound 0.0949 µM, first compound 0.1 µM): 23.4%; viability, T/C (second compound 0.0949 µM, first compound 0.316 µM): 22.6%; viability, T/C (second compound 0.0949 µM, first compound 1 µM): 25.4%; viability, T/C (second compound 0.3 µM, first compound 0.00316 µM): 22.7%; viability, T/C (second compound 0.3 µM, first compound 0.01 µM): 25%; viability, T/C (second compound 0.3 µM, first compound 0.0316 µM): 22.4%; viability, T/C (second compound 0.3 µM, first compound 0.1 µM): 21.4%; viability, T/C (second compound 0.3 µM, first compound 0.316 µM): 21%; viability, T/C (second compound 0.3 µM, first compound 1 µM): 28%

Q: Which IC50 (second compound 0.000949 µM) does the source give for `CC1(C)CCC(Nc2ncc(C(F)(F)F)c(-c3c[nH]c4c(P(C)(C)=O)c(C#N)ccc34)n2)CN1` (centres undefined) + CCn1c(-c2cccnc2C(C)OC)c2c3cc(ccc31)N1CCOC(CC(NC(=O)C(C(C)C)N(C)C(=O)C3(F)CCN(C(=O)C#CC(C)(C)N(C)C)CC3)C(=O)N3CCCC(N3)C(=O)OCC(C)(C)C2)C1 here?
A: Its IC50 is < 0.949 nM.

Q: And the IC50 (second compound 0.003 µM)?
A: The IC50 was < 0.949 nM.

Q: And the IC50 (second compound 0.00949 µM)?
A: The IC50 was < 0.949 nM.

Q: What about the IC50 (second compound 0.03 µM) of the same compound?
A: The IC50 was < 0.949 nM.

Q: And the IC50 (second compound 0.0949 µM)?
A: The IC50 was < 0.949 nM.

Q: What about the IC50 (second compound 0.3 µM) of the same compound?
A: The IC50 was < 0.949 nM.

Q: What about the viability, T/C (second compound 0.000949 µM, first compound 0.000949 µM) of the same compound?
A: The viability, T/C was 21%.

Q: And the viability, T/C (second compound 0.000949 µM, first compound 0.003 µM)?
A: The viability, T/C was 20.7%.

Q: And the viability, T/C (second compound 0.000949 µM, first compound 0.00949 µM)?
A: The viability, T/C was 16.3%.

Q: What about the viability, T/C (second compound 0.000949 µM, first compound 0.03 µM) of the same compound?
A: Its viability, T/C is 23.5%.

Q: What about the viability, T/C (second compound 0.000949 µM, first compound 0.0949 µM) of the same compound?
A: Its viability, T/C is 24.3%.

Q: And the viability, T/C (second compound 0.000949 µM, first compound 0.3 µM)?
A: The viability, T/C was 15.7%.

Q: And the viability, T/C (second compound 0.003 µM, first compound 0.000949 µM)?
A: The viability, T/C was 25.2%.

Q: And the viability, T/C (second compound 0.003 µM, first compound 0.003 µM)?
A: Its viability, T/C is 19.5%.

Q: And the viability, T/C (second compound 0.003 µM, first compound 0.00949 µM)?
A: The viability, T/C was 18.2%.

Q: What about the viability, T/C (second compound 0.003 µM, first compound 0.03 µM) of the same compound?
A: Its viability, T/C is 22.9%.

Q: What about the viability, T/C (second compound 0.003 µM, first compound 0.0949 µM) of the same compound?
A: The viability, T/C was 22.2%.

Q: What about the viability, T/C (second compound 0.003 µM, first compound 0.3 µM) of the same compound?
A: Its viability, T/C is 16.6%.

Q: What about the viability, T/C (second compound 0.00949 µM, first compound 0.000949 µM) of the same compound?
A: Its viability, T/C is 21.4%.

Q: And the viability, T/C (second compound 0.00949 µM, first compound 0.003 µM)?
A: The viability, T/C was 20.2%.

Q: And the viability, T/C (second compound 0.00949 µM, first compound 0.00949 µM)?
A: The viability, T/C was 21.2%.

Q: What about the viability, T/C (second compound 0.00949 µM, first compound 0.03 µM) of the same compound?
A: Its viability, T/C is 19.6%.

Q: And the viability, T/C (second compound 0.00949 µM, first compound 0.0949 µM)?
A: Its viability, T/C is 21.2%.

Q: And the viability, T/C (second compound 0.00949 µM, first compound 0.3 µM)?
A: Its viability, T/C is 21.9%.

Q: What about the viability, T/C (second compound 0.03 µM, first compound 0.000949 µM) of the same compound?
A: The viability, T/C was 20.4%.

Q: What about the viability, T/C (second compound 0.03 µM, first compound 0.003 µM) of the same compound?
A: The viability, T/C was 17%.

Q: And the viability, T/C (second compound 0.03 µM, first compound 0.00949 µM)?
A: Its viability, T/C is 22.8%.

Q: What about the viability, T/C (second compound 0.03 µM, first compound 0.03 µM) of the same compound?
A: The viability, T/C was 21.7%.

Q: And the viability, T/C (second compound 0.03 µM, first compound 0.0949 µM)?
A: Its viability, T/C is 19%.

Q: And the viability, T/C (second compound 0.03 µM, first compound 0.3 µM)?
A: The viability, T/C was 21.6%.

Q: And the viability, T/C (second compound 0.0949 µM, first compound 0.000949 µM)?
A: Its viability, T/C is 19.5%.

Q: And the viability, T/C (second compound 0.0949 µM, first compound 0.003 µM)?
A: The viability, T/C was 20.3%.

Q: And the viability, T/C (second compound 0.0949 µM, first compound 0.00949 µM)?
A: The viability, T/C was 21%.

Q: And the viability, T/C (second compound 0.0949 µM, first compound 0.03 µM)?
A: The viability, T/C was 23.4%.

Q: And the viability, T/C (second compound 0.0949 µM, first compound 0.0949 µM)?
A: Its viability, T/C is 19%.

Q: And the viability, T/C (second compound 0.0949 µM, first compound 0.3 µM)?
A: The viability, T/C was 23.7%.

Q: And the viability, T/C (second compound 0.3 µM, first compound 0.000949 µM)?
A: Its viability, T/C is 20.7%.

Q: What about the viability, T/C (second compound 0.3 µM, first compound 0.003 µM) of the same compound?
A: Its viability, T/C is 19.9%.

Q: And the viability, T/C (second compound 0.3 µM, first compound 0.00949 µM)?
A: Its viability, T/C is 25.6%.

Q: What about the viability, T/C (second compound 0.3 µM, first compound 0.03 µM) of the same compound?
A: Its viability, T/C is 20.9%.

Q: And the viability, T/C (second compound 0.3 µM, first compound 0.0949 µM)?
A: Its viability, T/C is 21.4%.

Q: And the viability, T/C (second compound 0.3 µM, first compound 0.3 µM)?
A: Its viability, T/C is 25.6%.

— PubChem BioAssay AID2060896 (Molecular Pharmacology Branch, DTP, NCI, 2025)
